{"source": "patent US20110257262A1", "about": "“CRYSTALLINE INGENOL MEBUTATE” (LEO PHARMA A/S, priority 2010, published 2011)", "origin": "cited, not measured here", "key": {"normal cells": {"system": "normal cells", "settings": "compared with skin cancer cells"}, "skin cancer cells": {"system": "skin cancer cells", "settings": "via rapid mitochondrial disruption and cell death by primary necrosis"}}}
{"smiles": "C/C=C(/C)C(=O)O[C@H]1C(C)=C[C@]23C(=O)[C@@H](C=C(CO)[C@@H](O)[C@]12O)[C@H]1[C@@H](C[C@H]3C)C1(C)C", "note": "[Ingenol mebutate, (1aR,2S,5R,5aS,6S,8aS,9R,10aR)-5,5a-dihydroxy-4-(hydroxy-methyl)-1,1,7,9-tetramethyl-11-oxo-1a,2,5,5a,6,9,10,10a-octahydro-1H2,8a-methanocyclopenta[a]cyclopropa[e]cyclodecen-6-yl(2Z)-2-methylbut-2-enoate]", "values": [{"measurement": "sensitivity of normal cells", "setting": "normal cells", "value": "less sensitive"}, {"measurement": "toxicity for skin cancer cells", "setting": "skin cancer cells", "value": "highly toxic"}]}
